From US10287267B2, “Isoquinolin-3-yl carboxamides and preparation and use thereof” (Samumed, LLC, priority 2016, dated 2019)
Where two headings read alike, the source gives them in different places.

What was measured:
[1] = system: secreted β-amyloid 40 (Aβ40) peptide; experiment: Secreted β-amyloid 40 (Aβ40) peptide in APP overexpressing SH-SY5Y-APP cells; format: cell-based; conditions: Homo sapiens, overnight (16-18 hours)
Protocol: Representative compounds were screened using the cell-based assay procedure for secreted β-amyloid 40 (Aβ40) peptide in an APP overexpressing cell line described below.
SH-SY5Y cells were infected with lentivirus to overexpress amyloid (A4) beta precursor protein (APP), hereafter referred to as the SH-SY5Y-APP cells.
SH-SY5Y cells were seeded onto 6-well plates at
The cell assay procedure start 18 h prior to treatment, as SH-SY5Y-APP cells were seeded onto 96-well plates at
At this time, designated wells were seeded with SH-SY5Y cells that were seeded and treated with puromycin at
Cells were exposed overnight (16-18 hours) in a 37° C. incubator before supernatant was harvested. […] The original plates with seeded cells were tested for cytotoxicity by measure of adenosine triphosphate (ATP) release by adding CellTiter-Glo® diluted 1:4 in distilled water (G7573, Promega) and transferring lysed cells to a completely black 96-well plate to be read with the Cytation3. Plates containing supernatant were spun down at 1200 g for 10 minutes to remove any cellular debris. Supernatant was then diluted 1:2 with a diluent from V-PLEX Aβ40 Peptide (6E10) Kit and directly tested for secreted Aβ40 peptide (K150SKE, Meso Scale Discovery).

[2] = target: recombinant DYRK1A kinase (Homo sapiens (Human), UniProt Q13627); experiment: DYRK1A kinase assay (Ser/Thr 18 peptide Z-lyte FRET); format: biochemical; conditions: 30 μM ATP, 1 h room temperature;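 note: Read-out is the coumarin to fluorescein emission ratio, referenced to unphosphorylated (0%) and phosphorylated (100%) Ser/Thr 18 peptide controls, values from dose-response curves by non-linear regression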
[3] = system: Tau phosphorylation at Ser396 (pSer396); experiment: Tau phosphorylation assay (pSer396 ELISA / western blot) in SH-SY5Y cells; format: cell-based, human; conditions: Homo sapiens, read-out: pSer396 Tau EC50;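 note: EC50 for reduction of Tau pSer396 in lysed cells, measured by colorimetric ELISA or chemiluminescent western blot, both using the same pSer396 antibody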
[4] = system: Wnt pathway (Sp5-Luc reporter, TCF/LEF binding sites) in SW480 colon carcinoma cells; experiment: Screening assay for Wnt activity: Sp5-Luc reporter gene assay; format: cell-based, human; conditions: Homo sapiens; for EC50: Sp5-Luc reporter, SW480 cells, 36 to 48 hours; for inhibition at 10 µM: SW480, read-out: percent inhibition at 10 μM;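 for all read-outs here: firefly luciferase luminescence read in stably transduced SW480 cells carrying the Sp5 promoter reporter with eight TCF/LEF sites, compounds given in 0.1% DMSO final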
Protocol: The screening assay for Wnt activity is described as follows.
Following incubation, 15 μl of BriteLite Plus luminescence reagent (Perkin Elmer) was added to each well of the 384-well assay plates. The plates were placed on an orbital shaker for 2 min and then luminescence was quantified using the Envision (Perkin Elmer) plate reader.

[5] = system: SW480 colon carcinoma cells; experiment: Cell viability assay (CellTiter-Glo); format: cell-based, human; conditions: Homo sapiens; for EC50: 96 h, SW480 cells, CellTiter-Glo, four days incubation; for inhibition at 10 µM: SW480, read-out: percent inhibition at 10 μM
[6] = system: α-smooth muscle actin (αSMA) positive LL29 cells; experiment: Inhibition of fibrotic process: αSMA in TGF-β1 treated primary human fibroblasts from IPF patients; format: cell-based; conditions: Homo sapiens, Fibroblast; for EC50: 96 h, Table 8, LL29 fibroblasts from IPF patients, TGF-β1 20 ng/mL, 4 days, dose-response 10 μM to 0.94 nM; for inhibition at 10 µM: read-out: percent value in parentheses beside EC50 >10 μM;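 for all read-outs here: controls were TGF-β1 stimulated wells with DMSO vehicle (positive) and cells given DMSO alone (negative), cultured in F12 medium with 1% fetal bovine serum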
[7] = target: recombinant GSK3β kinase (Homo sapiens (Human), UniProt P49841); experiment: GSK3β kinase assay (Ser/Thr 09 peptide Z-lyte FRET); format: biochemical; conditions: 46 μM ATP, 1 h room temperature;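 note: kinase activity read as coumarin to fluorescein emission ratio, 11-point threefold dilutions from 10 µM to 0.0003 µM in duplicate, unphosphorylated and phosphorylated peptide as 0% and 100% controls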
recombinant GSK3β kinase, sequence (P49841 whole entry): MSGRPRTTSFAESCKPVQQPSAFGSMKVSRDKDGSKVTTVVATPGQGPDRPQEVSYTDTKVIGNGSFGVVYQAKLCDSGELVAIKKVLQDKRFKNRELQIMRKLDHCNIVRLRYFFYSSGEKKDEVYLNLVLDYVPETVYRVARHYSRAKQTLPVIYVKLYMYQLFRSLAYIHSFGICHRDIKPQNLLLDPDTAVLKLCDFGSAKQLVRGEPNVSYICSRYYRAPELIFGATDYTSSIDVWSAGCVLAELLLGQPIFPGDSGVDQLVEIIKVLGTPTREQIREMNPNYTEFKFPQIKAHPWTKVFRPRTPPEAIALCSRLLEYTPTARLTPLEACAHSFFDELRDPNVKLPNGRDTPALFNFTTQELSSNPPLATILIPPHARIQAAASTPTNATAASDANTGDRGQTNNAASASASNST

[8] = system: IL-6; experiment: IL-6 inhibition in LPS-stimulated human peripheral blood mononuclear cells (HTRF); format: cell-based; conditions: Homo sapiens, PBMC; for EC50: Table 9, huPBMCs, LPS 50 ng/mL, 22 hours, dose-response starting from 10 μM; for inhibition at 10 µM: read-out: percent value in parentheses beside EC50 >10 μM;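 for all read-outs here: IL-6 detected by HTRF with an XL665- and Cryptate-labelled anti-IL-6 antibody pair, samples run in duplicate, EC50 obtained from a four-parameter Levenberg-Marquardt curve fit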
Protocol: After 22 hour incubation, a mixture of anti-IL6 XL665 and anti-IL-6 Cryptate diluted in reconstitution buffer (Catalog #62IL6PEC, Cisbio Inc., Bedford, Mass.) was added to each well. […] All samples were processed in duplicate. […] EC50 was determined using software generated by Dotmatics Limited (Windhill Bishops Stortford Herts, UK) using the Levenberg-Marquardt 4 parameter fitting procedure with finite different gradients.

[9] = SH-SY5Y cells, overnight (16-18 h) exposure

Compound	IC50 [1] [nM]	EC50 [2] [nM]	EC50 [3, 9] [nM]	EC50 [4] [nM]	EC50 [5] [nM]	EC50 [6] [nM]	EC50 [7] [nM]	EC50 [8] [nM]	inhibition at 10 µM [4] [%]	inhibition at 10 µM [5] [%]	inhibition at 10 µM [8] [%]	inhibition at 10 µM [6] [%]	EC50 ([3]; SH-SY5Y) [nM]
Cn1cc(-c2ccc3cnc(NC(=O)C4CC4)cc3c2)cn1 [Compound 1, N-(6-(1-Methyl-1H-pyrazol-4-yl)isoquinolin-3-yl)cyclopropanecarboxamide]	3960	4	149	650	130	135	8	338					
Cn1cc(-c2ccc3cnc(NC(=O)C4CCNCC4)cc3c2)cn1 [Compound 72, N-(6-(1-methyl-1H-pyrazol-4-yl)isoquinolin-3-yl)piperidine-4-carboxamide]	2100	2.5	757	920	911	96	64	1130					
Cn1cc(-c2ccc3cnc(NC(=O)C4CCN(C5CC5)CC4)cc3c2)cn1 [Compound 76, 1-Cyclopropyl-N-(6-(1-methyl-1H-pyrazol-4-yl)isoquinolin-3-yl)piperidine-4-carboxamide]	1200	2.3	219	705	1560	87	31	1130					
Cn1cc(-c2ccc3cnc(NC(=O)C4CCN(CC(C)(C)C)CC4)cc3c2)cn1 [Compound 78, N-(6-(1-Methyl-1H-pyrazol-4-yl)isoquinolin-3-yl)-1-neopentylpiperidine-4-carboxamide]	889	4.7	265	1000	1840	108	63	2940					
Cn1cc(-c2ccc3cnc(NC(=O)C4CCN(CCC(F)(F)F)CC4)cc3c2)cn1 [Compound 82, N-(6-(1-Methyl-1H-pyrazol-4-yl)isoquinolin-3-yl)-1-(3,3,3-trifluoropropyl) piperidine-4-carboxamide]	5100	0.9	315	4950	2710	156	22	1190					
Cn1cc(-c2ccc3cnc(NC(=O)C4CCN(CC(F)F)CC4)cc3c2)cn1 [Compound 84, 1-(2,2-Difluoroethyl)-N-(6-(1-methyl-1H-pyrazol-4-yl)isoquinolin-3-yl) piperidine-4-carboxamide]	4400	1.3	454	1900	1950	148	20	2460					
Cn1cc(-c2ccc3cnc(NC(=O)C4CCN(CC(C)(C)F)CC4)cc3c2)cn1 [Compound 85, 1-(2-Fluoro-2-methylpropyl)-N-(6-(1-methyl-1H-pyrazol-4-yl)isoquinolin-3-yl)piperidine-4-carboxamide]	1300	1.4	392	1200	1640	97	29	1150					
Cn1cc(-c2ccc3cnc(NC(=O)[C@@H]4CCCNC4)cc3c2)cn1 [Compound 111, (R)—N-(6-(1-Methyl-1H-pyrazol-4-yl)isoquinolin-3-yl)piperidine-3-carboxamide]	272	3.9	597	743	526	280	40						
Cn1cc(-c2ccc3cnc(NC(=O)CN4CCCCC4)cc3c2)cn1 [Compound 115, N-(6-(1-Methyl-1H-pyrazol-4-yl)isoquinolin-3-yl)-2-(piperidin-1-yl) acetamide]	956	3.4	311	2400	3500	605	30	1910					
CC(C)CN1CCC(F)(C(=O)Nc2cc3cc(-c4cnn5c4CN(CCF)CC5)ccc3cn2)CC1 [Compound 1023, 4-Fluoro-N-(6-(5-(2-fluoroethyl)-4,5,6,7-tetrahydropyrazolo[1,5-a]pyrazin-3-yl)isoquinolin-3-yl)-1-isobutylpiperidine-4-carboxamide]		8.7	1800	> 10000	> 10000	4670	838	> 10000	38.2	39.9	20.7		
CN1CCN(CC(=O)Nc2cc3cc(-c4cnn5c4CN(CCF)CC5)ccc3cn2)CC1 [Compound 1024, N-(6-(5-(2-Fluoroethyl)-4,5,6,7-tetrahydropyrazolo[1,5-a]pyrazin-3-yl)isoquinolin-3-yl)-2-(4-methylpiperazin-1-yl)acetamide]		17	1200	3510	6770	549	150	> 10000			33.1		
Cc1nnc(-c2ccc3cnc(NC(=O)CN4CC5CCC(C4)O5)cc3c2)s1 [Compound 1029, 2-(8-Oxa-3-azabicyclo[3.2.1]octan-3-yl)-N-(6-(5-methyl-1,3,4-thiadiazol-2-yl)isoquinolin-3-yl)acetamide]		25.7	239	3340	> 10000	> 10000	18	> 10000		34.6	7.3	31.8	
C[C@@H]1CCCN1CC(=O)Nc1cc2cc(-c3cnc4n3CCNC4)ccc2cn1 [Compound 1030, (R)-2-(2-Methylpyrrolidin-1-yl)-N-(6-(5,6,7,8-tetrahydroimidazo[1,2-a]pyrazin-3-yl)isoquinolin-3-yl)acetamide]		194	1200	> 10000	> 10000	2810	390	> 10000	44.8	19.3	7.7		
CN(CC(=O)Nc1cc2cc(-c3cnc4n3CCNC4)ccc2cn1)C1CCC1 [Compound 1031, 2-(Cyclobutyl(methyl)amino)-N-(6-(5,6,7,8-tetrahydroimidazo[1,2-a]pyrazin-3-yl)isoquinolin-3-yl)acetamide]		70.4	969	3970	3890	> 10000	380	> 10000			2	39.2	
Cn1cc(-c2ccc3cnc(NC(=O)C45CCN(CC4)CC5)cc3c2)cn1 [Compound 1071, N-(6-(1-Methyl-1H-pyrazol-4-yl)isoquinolin-3-yl)quinuclidine-4-carboxamide]		16.5		> 10000	> 10000	712	2730	> 10000	43.2	26.2	8.8		6900
CC(C)CN1CCC(F)(C(=O)Nc2cc3cc(-n4ccnn4)ccc3cn2)CC1 [Compound 1074, N-(6-(1H-1,2,3-triazol-1-yl)isoquinolin-3-yl)-4-fluoro-1-isobutylpiperidine-4-carboxamide]		6.9	1300	> 10000	> 10000	> 10000	278	> 10000	19.7	25	5.6		
